Patent publication US6376666B1 (Nauchno-Issledovatelsky Institut Farmakologii Rossiiskoi …, priority 1994, dated 2002)
Marks after values point to notes of the source that are not given here.

What was measured:
[1] = system: ventricular disturbances of heart rhythm; assay: arrhythmia in concious dogs according to Harris; assay type: in vivo; settings: for % ectopic contractions, change vs basal level / Heart rate, change vs basal level: 2 mg/kg i.v.
Protocol: The arrhythmia in concious dogs according to Harris. The experiments were conducted in mongrel dogs of either sex weighing 9-14 kg. Under anesthesia (40 mg/kg of nembutal i.v.) and artificial respiration the two-step occlusion of the left anterior descending coronary artery was performed. The constant ECG disturbances of the heart rhythm were recorded after 24 hours. […] T-Student' test was used for statistical calculation.

adrenaline arrhythmia = adrenaline arrhythmia in concious rabbits; settings: given 2 min before arrhythmogenic dose of adrenaline
Protocol: Adrenaline arrhythmia. The 0,1% solution of adrenaline hydrochloride was injected to the marginal ear's vein of rabbit weighing 2,5-3,0 kg at dose ranging 120-150 mcg/kg which induced cardiac rhythm disturbances of two types.
The tested compound was injected in 3 ml of distilled water 30 min after determination of arrhythmogenic dose of adrenaline and the ECG was recorded in 2nd standard lead. 2 min after administration of tested compound the arrhythmogenic dose of adrenaline was injected.

[2] = system: ventricular fibrillations; assay: ventricular fibrillation, 7-min occlusion and reperfusion of coronary artery in anesthetized rats; assay type: in vivo
Protocol: The experiments were conducted in male rats weighing 180-240 g and anesthetized with nembutal (60 mg/kg i.v.) with open chest and artificial respiration. The occlusion of the left coronary artery was performed 1-2 min after experiment beginning with following reperfusion after 7 min. During this period time according to literature data [Krzeminski T., Grzyb J., Kurcok A., Brus R.: Pol.J.Pharmacol., 1992, 44, Suppl., p.169-170] the maximum number of ventricular fibrillations (70-100%) were registered. The ECG in the 2nd standard lead was recorded in “Mingograph-81”. The number of ventricular fibrillations during occlusion and reperfusion periods, the life menacing arrhythmia (fibrillation+paroxysmal ventricular tachycardia) and total number of arrhythmias were calculated. The known antiarrhythmic drug bonnecor was used as the reference agent [Grigorieva E. K., Gorbunova V. V. in: “New antiarrhythmic drug—bonnecor (the pharmacology and clinical usage)”, M., 1993, p.64-67]. The compounds were injected i.v. at the following doses: bonnecor—1,0 mg/kg, compound IX—2,0 mg/kg, compound XX—1,0 mg/kg. The control animals were administered with the equivalent volume of physiological solution (1,0 ml/kg). 4 series of experiments were carried out in 80 rats. The results were assessed according to the method of point scale: the absence of arrhythmia—0 point, extrasystole—1 point, paroxysmal ventricular tachycardia—2 points, ventricular fibrillation—3 points, fibrillation observed during the occlusion of coronary vessel—4 points. For statistical analysis the Fisher's exact probability and Wilconson's methods were used.
[Krzeminski T., Grzyb J., Kurcok A., Brus R.: Pol.J.Pharmacol., 1992, 44, Suppl., p.169-170] have shown that 7 min occlusion with following reperfusion of coronary artery in anesthetized rats produced the ventricular fibrillation (68-100%). Defibrotide and prostacycline decreased the number of fibrillations. We have studied the antifibrillator activity of some derivatives of 2-mercaptbenzimidazole in this model with disturbances of heart rhythm. Bonnecor (1,0 mg/kg) was used as the reference drug. It is well known that this agent produces apronouncedantifibrillatoryactivity [Grigorieva E. K., Gorbunova V. V. in: “New antiarrhythmic drug-bonnecor (the pharmacology and clinical usage)”, M., 1993, p.64-67].

cats = assay: hemodynamics and activity of intact heart in cats under anesthesia; assay type: in vivo; settings: for Cardiac volume, change from basal level / Heart rate, change from basal level / Mean blood flow accelaration (aortic), change from basal level / Mean blood pressure, change from basal level / Stroke volume, change from basal level: cats
Protocol: The effects of compounds on the hemodynamics and activity of intact heart were studied in cats under anesthesia. The experiments were carried out under conditions of open chest. The phase curve of aortic blood flow was the main index of cardiac activity. The compounds were administered i.v. in physiological solution. The t-Student' test was used to estimate the statistical significance.

[3] = system: calcium chloride arrhythmia; assay: calcium chloride arrhythmia in concious rats; assay type: in vivo
Protocol: In these experiments the outbred concious rats 180-200 g of weight were injected with 10% solution of calcium chloride in tail vein at dose range of 250-300 mg/kg.

[4] = 0.5 mg/kg i.v., after injection
[5] = 1.0 mg/kg i.v., after injection

Structure (SMILES): CCOc1ccc2nc(SCCN(CC)CC)[nH]c2c1 [Compound IX, 2-[2-(Diethylamino)ethylthio]-5-ethoxybenz-imidazole]
- antiarrhythmic effect, in words ([1]; concious dogs with ventricular disturbances of heart rhythm, i.v.): pronounced antiarrhythmic effect
- % ectopic contractions, change vs basal level ([1]; concious dogs, after 3 min): −44.8 ± 15.0 %
- Heart rate, change vs basal level ([1]; concious dogs, after 3 min): +3.2 ± 8.4 beats/min
- % ectopic contractions, change vs basal level ([1]; concious dogs, after 5 min): −43.8 ± 13.3 %
- Heart rate, change vs basal level ([1]; concious dogs, after 5 min): −5.2 ± 9.2 beats/min
- % ectopic contractions, change vs basal level ([1]; concious dogs, after 10 min): −59.4 ± 7.8 %
- Heart rate, change vs basal level ([1]; concious dogs, after 10 min): −14.6 ± 12.0 beats/min
- % ectopic contractions, change vs basal level ([1]; concious dogs, after 20 min): −41.4 ± 8.1 %
- Heart rate, change vs basal level ([1]; concious dogs, after 20 min): −16.4 ± 6.6 & beats/min
- % ectopic contractions, change vs basal level ([1]; concious dogs, after 30 min): −24.8 ± 5.8 %
- Heart rate, change vs basal level ([1]; concious dogs, after 30 min): −5.6 ± 2.1 & beats/min
- % ectopic contractions, change vs basal level ([1]; concious dogs, after 60 min): −17.2 ± 9.1%
- Heart rate, change vs basal level ([1]; concious dogs, after 60 min): −5.2 ± 4.1 & beats/min
- duration of antiarrhythmic effect ([1]; concious dogs, 2,0 mg/kg i.v.): 50 min
- effect on heart rate, in words ([1]; concious dogs, i.v.): gradual bradycardia
- tolerability / side effects, in words ([1]; concious dogs, i.v.): no side effects
- Adrenaline arrhythmia. Range of active doses (adrenaline arrhythmia): 0.3 to 0.7 mg/kg
- antifibrillatory effect, in words ([2]; anesthetized rats i.v., bonnecor 1,0, IX 2,0, X (printed) 1,0 mg/kg): reduced the number of both the ventricular fibrillations and lethality hazardous arrhythmia
- Number of VF (ventricular fibrillations) ([2]; anesthetized rats, 2 mg/kg i.v., 20 animals, control 15 of 24): 4*
- Number of LHA (lethality hazardous arrhythmia) ([2]; anesthetized rats, 2 mg/kg i.v., 20 animals, control 22 of 24): 12*
- Total numbers of arrhyt. ([2]; anesthetized rats, 2 mg/kg i.v., 20 animals, control 24 of 24): 17^
- Severity of arrhythmias ([2]; anesthetized rats, 2 mg/kg i.v., 20 animals, control 66): 32** points
- effect on contractile function of heart, in words (cats; cats i.v., same doses as bradycardia): slightly enhanced the contractility of myocardium
- duration of bradycardia after administration (cats; cats i.v., VIII 1,0, IX 0,5 and 1,0, XX 1,0 and 2,0 mg/kg): 30 min
- effect on heart rate, in words (cats; cats i.v., VIII 1,0, IX 0,5 and 1,0, XX 1,0 and 2,0 mg/kg, XXIII 1.0, verapamil 0.5 mg/kg): expressed bradycardia
- Cardiac volume, change from basal level (cats; 0.5 mg/kg i.v., after 2 min): −3.5 ± 6.0%
- Heart rate, change from basal level (cats; 0.5 mg/kg i.v., after 2 min): −11.6 ± 2.8 %
- Mean blood flow accelaration (aortic), change from basal level (cats; 0.5 mg/kg i.v., after 2 min): +11.0 ± 8.8%
- Mean blood pressure, change from basal level (cats; 0.5 mg/kg i.v., after 2 min): +4.4 ± 4.7%
- Stroke volume, change from basal level (cats; 0.5 mg/kg i.v., after 2 min): +9.4 ± 6.5%
- Cardiac volume, change from basal level (cats; 0.5 mg/kg i.v., after 5 min): −1.7 ± 4.8%
- Mean blood flow accelaration (aortic), change from basal level (cats; 0.5 mg/kg i.v., after 5 min): +0.6 ± 4.9%
- Mean blood pressure, change from basal level (cats; 0.5 mg/kg i.v., after 5 min): −5.4 ± 2.3%
- Stroke volume, change from basal level (cats; 0.5 mg/kg i.v., after 5 min): +5.6 ± 5.6%
- Cardiac volume, change from basal level (cats; 0.5 mg/kg i.v., after 10 min): −4.2± 2.1%
- Heart rate, change from basal level (cats; 0.5 mg/kg i.v., after 10 min): −7.3 ± 1.6 %
- Mean blood flow accelaration (aortic), change from basal level (cats; 0.5 mg/kg i.v., after 10 min): +3.0 ± 4.0%
- Mean blood pressure, change from basal level (cats; 0.5 mg/kg i.v., after 10 min): −1.2 ± 3.6%
- Stroke volume, change from basal level (cats; 0.5 mg/kg i.v., after 10 min): +3.6 ± 3.0%
- Cardiac volume, change from basal level (cats; 0.5 mg/kg i.v., after 20 min): −6.1 ± 3.4%
- Heart rate, change from basal level (cats; 0.5 mg/kg i.v., after 20 min): −4.5 ± 2.2%
- Mean blood flow accelaration (aortic), change from basal level (cats; 0.5 mg/kg i.v., after 20 min): +5.6 ± 5.1%
- Mean blood pressure, change from basal level (cats; 0.5 mg/kg i.v., after 20 min): −4.1 ± 4.8%
- Stroke volume, change from basal level (cats; 0.5 mg/kg i.v., after 20 min): −0.7 ± 4.0%
- Cardiac volume, change from basal level (cats; 0.5 mg/kg i.v., after 30 min): −2.8 ± 7.8%
- Heart rate, change from basal level (cats; 0.5 mg/kg i.v., after 30 min): −5.3 ± 2.3%
- Mean blood flow accelaration (aortic), change from basal level (cats; 0.5 mg/kg i.v., after 30 min): +1.8 ± 5.8%
- Mean blood pressure, change from basal level (cats; 0.5 mg/kg i.v., after 30 min): −4.9 ± 6.5%
- Stroke volume, change from basal level (cats; 0.5 mg/kg i.v., after 30 min): +1.8 ± 9.3%
- Cardiac volume, change from basal level (cats; [4]): +6.5 ± 2.8%
- Heart rate, change from basal level (cats; [4]): −8.0 ± 3.5%
- Mean blood flow accelaration (aortic), change from basal level (cats; [4]): +8.8 ± 5.8%
- Mean blood pressure, change from basal level (cats; [4]): −2.1 ± 3.0%
- Stroke volume, change from basal level (cats; [4]): +17.0 ± 5.5 %
- Cardiac volume, change from basal level (cats; 1.0 mg/kg i.v., after 2 min): +2.2 ± 3.5%
- Heart rate, change from basal level (cats; 1.0 mg/kg i.v., after 2 min): −14.1 ± 2.1 %
- Mean blood flow accelaration (aortic), change from basal level (cats; 1.0 mg/kg i.v., after 2 min): ± 8.6 +3.8%
- Mean blood pressure, change from basal level (cats; 1.0 mg/kg i.v., after 2 min): +0.6 ± 2.7%
- Stroke volume, change from basal level (cats; 1.0 mg/kg i.v., after 2 min): +19.3 ± 4.6 %
- Cardiac volume, change from basal level (cats; 1.0 mg/kg i.v., after 5 min): +1.7 ± 6.8%
- Heart rate, change from basal level (cats; 1.0 mg/kg i.v., after 5 min): −10.6 ± 1.5 %
- Mean blood flow accelaration (aortic), change from basal level (cats; 1.0 mg/kg i.v., after 5 min): +13.6 ± 5.7%
- Mean blood pressure, change from basal level (cats; 1.0 mg/kg i.v., after 5 min): −3.8 ± 3.4%
- Stroke volume, change from basal level (cats; 1.0 mg/kg i.v., after 5 min): +13.8 ± 7.8%
- Cardiac volume, change from basal level (cats; 1.0 mg/kg i.v., after 10 min): −1.3 ± 6.8%
- Heart rate, change from basal level (cats; 1.0 mg/kg i.v., after 10 min): −7.1 ± 1.0 %
- Mean blood flow accelaration (aortic), change from basal level (cats; 1.0 mg/kg i.v., after 10 min): +9.6 ± 3.9 %
- Mean blood pressure, change from basal level (cats; 1.0 mg/kg i.v., after 10 min): −6.8 ± 2.5 %
- Stroke volume, change from basal level (cats; 1.0 mg/kg i.v., after 10 min): +5.9 ± 6.3%
- Cardiac volume, change from basal level (cats; 1.0 mg/kg i.v., after 20 min): −0.2 ± 3.8%
- Heart rate, change from basal level (cats; 1.0 mg/kg i.v., after 20 min): −4.2 ± 1.9%
- Mean blood flow accelaration (aortic), change from basal level (cats; 1.0 mg/kg i.v., after 20 min): +13.1 ± 5.0 %
- Mean blood pressure, change from basal level (cats; 1.0 mg/kg i.v., after 20 min): −1.9 ± 2.9%
- Stroke volume, change from basal level (cats; 1.0 mg/kg i.v., after 20 min): +4.4 ± 4.5%
- Cardiac volume, change from basal level (cats; 1.0 mg/kg i.v., after 30 min): −2.5 ± 5.1%
- Heart rate, change from basal level (cats; 1.0 mg/kg i.v., after 30 min): −2.3 ± 3.5%
- Mean blood flow accelaration (aortic), change from basal level (cats; 1.0 mg/kg i.v., after 30 min): +3.9 ± 2.0%
- Mean blood pressure, change from basal level (cats; 1.0 mg/kg i.v., after 30 min): −2.7 ± 2.9%
- Stroke volume, change from basal level (cats; 1.0 mg/kg i.v., after 30 min): +0.7 ± 6.7%
- Cardiac volume, change from basal level (cats; [5]): +17.6 ± 8.2%
- Heart rate, change from basal level (cats; [5]): −15.4 ± 2.7 %
- Mean blood flow accelaration (aortic), change from basal level (cats; [5]): +14.8 ± 8.8%
- Mean blood pressure, change from basal level (cats; [5]): −1.6 ± 7.3%
- Stroke volume, change from basal level (cats; [5]): +34.21 ± 0.6 %
- ED50 ([3]; Rattus norvegicus, iv, concious rats, given 2 min prior calcium chloride 250-300 mg/kg i.v., read-out: Calcium chloride arrhythmia ED50 (mean effective dose)): 1 mg/kg
- effect on death from lethal ventricular fibrillation, in words ([3]; concious rats, injected 2 min prior calcium chloride): prevents the death of animals
- activity relative to lidocaine, calcium chloride arrhythmia ([3]; rats, higher than lidocaine): 7,5 folds
- activity relative to novocainamide, calcium chloride arrhythmia ([3]; rats, higher than novocainamide): 50 folds

Structure (SMILES): CCOc1ccc2nc(SCCN3CCOCC3)[nH]c2c1 [XII, 2-[2-(Morpholino)ethylthio]-5-ethoxybenzimidazole]
- effect on heart rate, in words (cats; cats i.v., doses of 0,5 mg/kg-2,0 mg/kg): small and short bradycardia
